# Conditions: in presence of polyvinylpyrrolidone (PVP); data not shown
smiles,measurement,value
CN1c2c(nc(N)[nH]c2=O)NC[C@@H]1CNc1ccc(C(=O)N[C@@H](CCC(=O)O)C(=O)O)cc1 [5-methyl-(6S)-tetrahydrofolic acid],effect of PVP on break-down of 5-methyl-(6S)-tetrahydrofolic acid,accelerated the break-down

# Source: US11617751B2, “Pharmaceutical composition containing a tetrahydrofolic acid” (Bayer Pharma AG, priority 2006, dated 2023)
